Measurements as given in patent US10392391B2 (Vertex Pharmaceuticals Incorporated, priority 2012, dated 2019).

The compounds below were run against ATR kinase (full-length ATR) (Homo sapiens (Human), UniProt Q13535) (assay: ATR inhibition assay (radioactive-phosphate incorporation)). Conditions: not given.
Sequence of ATR kinase (full-length ATR) (Q13535 whole entry): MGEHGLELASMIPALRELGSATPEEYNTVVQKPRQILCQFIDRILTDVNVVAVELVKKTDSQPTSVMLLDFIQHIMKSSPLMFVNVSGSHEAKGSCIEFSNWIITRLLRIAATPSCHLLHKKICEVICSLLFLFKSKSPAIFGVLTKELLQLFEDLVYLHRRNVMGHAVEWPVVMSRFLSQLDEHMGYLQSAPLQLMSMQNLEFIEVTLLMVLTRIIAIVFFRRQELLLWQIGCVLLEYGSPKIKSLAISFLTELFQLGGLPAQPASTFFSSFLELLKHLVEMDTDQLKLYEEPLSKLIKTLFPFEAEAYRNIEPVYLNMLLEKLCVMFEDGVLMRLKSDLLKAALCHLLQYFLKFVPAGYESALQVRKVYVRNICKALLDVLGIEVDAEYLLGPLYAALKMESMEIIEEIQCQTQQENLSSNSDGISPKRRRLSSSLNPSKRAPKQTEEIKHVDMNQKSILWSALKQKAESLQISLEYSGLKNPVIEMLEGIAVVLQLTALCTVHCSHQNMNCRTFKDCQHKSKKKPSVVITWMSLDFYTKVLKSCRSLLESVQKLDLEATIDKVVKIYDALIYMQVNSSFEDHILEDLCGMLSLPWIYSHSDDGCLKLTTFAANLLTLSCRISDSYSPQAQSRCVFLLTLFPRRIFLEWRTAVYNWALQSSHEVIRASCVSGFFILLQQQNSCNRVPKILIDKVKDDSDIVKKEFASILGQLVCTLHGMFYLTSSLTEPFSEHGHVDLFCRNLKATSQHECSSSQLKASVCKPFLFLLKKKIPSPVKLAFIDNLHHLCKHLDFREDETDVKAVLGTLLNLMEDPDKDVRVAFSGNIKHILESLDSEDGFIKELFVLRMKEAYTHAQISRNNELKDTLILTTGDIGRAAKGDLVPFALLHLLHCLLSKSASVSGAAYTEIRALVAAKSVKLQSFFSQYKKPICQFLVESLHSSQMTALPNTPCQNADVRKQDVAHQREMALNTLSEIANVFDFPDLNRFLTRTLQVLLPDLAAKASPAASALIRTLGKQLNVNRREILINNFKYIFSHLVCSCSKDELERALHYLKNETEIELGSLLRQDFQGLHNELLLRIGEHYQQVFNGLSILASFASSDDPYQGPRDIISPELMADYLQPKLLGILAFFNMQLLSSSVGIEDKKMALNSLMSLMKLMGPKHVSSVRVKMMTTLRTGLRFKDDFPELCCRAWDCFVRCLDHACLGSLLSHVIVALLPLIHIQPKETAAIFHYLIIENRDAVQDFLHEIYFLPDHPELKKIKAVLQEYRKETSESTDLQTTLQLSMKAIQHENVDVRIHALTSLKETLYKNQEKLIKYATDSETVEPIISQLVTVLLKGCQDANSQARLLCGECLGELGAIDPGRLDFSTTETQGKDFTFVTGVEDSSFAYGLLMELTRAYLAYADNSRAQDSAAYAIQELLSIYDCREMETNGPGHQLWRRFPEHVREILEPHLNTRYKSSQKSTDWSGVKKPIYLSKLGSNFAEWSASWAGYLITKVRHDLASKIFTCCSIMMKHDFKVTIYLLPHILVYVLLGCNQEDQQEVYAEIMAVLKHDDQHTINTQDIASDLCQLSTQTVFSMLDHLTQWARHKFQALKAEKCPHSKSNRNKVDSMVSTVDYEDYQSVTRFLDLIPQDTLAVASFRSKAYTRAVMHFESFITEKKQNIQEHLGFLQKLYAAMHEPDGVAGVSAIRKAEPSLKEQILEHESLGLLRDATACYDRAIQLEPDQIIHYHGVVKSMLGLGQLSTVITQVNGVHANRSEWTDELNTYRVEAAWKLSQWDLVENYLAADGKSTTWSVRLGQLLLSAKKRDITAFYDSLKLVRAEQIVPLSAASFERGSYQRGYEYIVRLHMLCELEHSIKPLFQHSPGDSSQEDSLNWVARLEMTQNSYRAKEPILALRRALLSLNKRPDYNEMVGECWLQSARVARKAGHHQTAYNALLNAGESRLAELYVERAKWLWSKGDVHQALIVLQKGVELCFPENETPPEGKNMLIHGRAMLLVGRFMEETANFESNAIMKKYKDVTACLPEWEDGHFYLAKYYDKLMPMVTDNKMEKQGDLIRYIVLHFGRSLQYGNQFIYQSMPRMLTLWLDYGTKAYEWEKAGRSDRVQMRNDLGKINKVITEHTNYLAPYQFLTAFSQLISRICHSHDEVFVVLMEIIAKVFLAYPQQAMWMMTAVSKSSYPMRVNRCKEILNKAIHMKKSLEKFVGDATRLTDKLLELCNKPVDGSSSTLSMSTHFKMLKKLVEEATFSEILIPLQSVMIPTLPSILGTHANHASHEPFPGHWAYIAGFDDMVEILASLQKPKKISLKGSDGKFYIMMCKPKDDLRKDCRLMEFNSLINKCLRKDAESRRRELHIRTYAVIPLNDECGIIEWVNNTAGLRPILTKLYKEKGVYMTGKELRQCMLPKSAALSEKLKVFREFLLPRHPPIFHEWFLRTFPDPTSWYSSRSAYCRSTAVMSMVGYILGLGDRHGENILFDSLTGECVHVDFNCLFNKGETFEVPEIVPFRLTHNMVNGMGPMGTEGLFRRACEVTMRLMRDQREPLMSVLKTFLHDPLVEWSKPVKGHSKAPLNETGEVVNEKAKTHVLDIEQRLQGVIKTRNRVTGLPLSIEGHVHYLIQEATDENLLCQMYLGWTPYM
Format: biochemical
Outline: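 Radiometric 33P incorporation by 5 nM full-length ATR into 800 μM target peptide with 10 μM [γ-33P]ATP, in 50 mM Tris/HCl pH 7.5, 10 mM MgCl2, 1 mM DTT, 7% DMSO, 25° C. Compound pre-incubated 10 minutes; reaction stopped after 24 hours, captured on phosphocellulose. Ki(app) from non-linear regression of initial rates.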
Compound `CC(C)(C#N)c1cnc2c(C(=O)Nc3cnccc3N3CCN(C4COC4)CC3)c(N)nn2c1` [I-N-142, 2-amino-6-(2-cyanopropan-2-yl)-N-(4-(4-(oxetan-3-yl)piperazin-1-yl)pyridin-3-yl)pyrazolo[1,5-a]pyrimidine-3-carboxamide] has a Ki of 1000 to 5000 nM.

Same assay, conditions: Ki(app), 5 nM full-length ATR, 10 μM ATP, 25° C.
Work on `Nc1nn2cc(Cl)cnc2c1C(=O)Nc1cnccc1N1CCn2cncc2C1` [I-N-75, 2-amino-6-chloro-N-(4-(5,6-dihydroimidazo[1,5-a]pyrazin-7(8H)-yl)pyridin-3-yl)pyrazolo[1,5-a]pyrimidine-3-carboxamide] yielded a Ki of 10 to 1000 nM. With `COC1CCN(C2CCN(c3ccncc3NC(=O)c3c(N)nn4cc(Cl)cnc34)CC2)C1` (stereo not shown) [I-N-95, 2-amino-6-chloro-N-(4-(4-(3-methoxypyrrolidin-1-yl)piperidin-1-yl)pyridin-3-yl)pyrazolo[1,5-a]pyrimidine-3-carboxamide] the Ki was 10 to 1000 nM. Compound `Nc1nn2cc(F)cnc2c1C(=O)Nc1cnccc1O[C@@H]1CN2CCC1CC2` [I-O-10, (S)-2-amino-6-fluoro-N-(4-(quinuclidin-3-yloxy)pyridin-3-yl)pyrazolo[1,5-a]pyrimidine-3-carboxamide] has a Ki of 10 to 1000 nM. For `CN(C)CC1CCN(c2ccncc2NC(=O)c2c(N)nn3cc(F)cnc23)CC1` [I-N-267, 2-amino-N-(4-(4-((dimethylamino)methyl)piperidin-1-yl)pyridin-3-yl)-6-fluoropyrazolo[1,5-a]pyrimidine-3-carboxamide], the Ki was 10 to 1000 nM. `Nc1nn2cc(F)cnc2c1C(=O)Nc1cnccc1-c1ccncc1` [I-C-24, N-([4,4′-bipyridin]-3-yl)-2-amino-6-fluoropyrazolo[1,5-a]pyrimidine-3-carboxamide] was tested, and the Ki was 10 to 1000 nM. Compound `Nc1nn2cc(Cl)cnc2c1C(=O)Nc1cnccc1N1CCN(C2CCC2)CC1` [I-N-48, 2-amino-6-chloro-N-(4-(4-cyclobutylpiperazin-1-yl)pyridin-3-yl)pyrazolo[1,5-a]pyrimidine-3-carboxamide] has a Ki of 10 to 1000 nM. Compound `Nc1nn2cc(Cl)cnc2c1C(=O)Nc1cncc(F)c1N1CCN(C2COC2)CC1` [I-N-117, 2-amino-6-chloro-N-(5-fluoro-4-(4-(oxetan-3-yl)piperazin-1-yl)pyridin-3-yl)pyrazolo[1,5-a]pyrimidine-3-carboxamide] has a Ki of 10 to 1000 nM. `Nc1nn2cc(F)cnc2c1C(=O)Nc1cnccc1N1CCC2(CCNC2)CC1` [I-N-255, N-(4-(2,8-diazaspiro[4.5]decan-8-yl)pyridin-3-yl)-2-amino-6-fluoropyrazolo[1,5-a]pyrimidine-3-carboxamide] was tested, and the Ki was 10 to 1000 nM. Work on `Nc1nn2cc(F)cnc2c1C(=O)Nc1cnccc1N1CCN(S(=O)(=O)C2CCOC2)CC1` (stereo not shown) [I-N-179, 2-amino-6-fluoro-N-(4-(4-((tetrahydrofuran-3-yl)sulfonyl)piperazin-1-yl)pyridin-3-yl)pyrazolo[1,5-a]pyrimidine-3-carboxamide] yielded a Ki of 10 to 1000 nM. For `Nc1nn2cc(F)cnc2c1C(=O)Nc1cnccc1OC1CCS(=O)(=O)CC1` [I-O-45, 2-amino-N-(4-((1,1-dioxidotetrahydro-2H-thiopyran-4-yl)oxy)pyridin-3-yl)-6-fluoropyrazolo[1,5-a]pyrimidine-3-carboxamide], the Ki was 10 to 1000 nM. With `Nc1nn2cc(F)cnc2c1C(=O)Nc1cnccc1N1CCN(S(=O)(=O)C2COC2)CC1` [I-N-195, 2-amino-6-fluoro-N-(4-(4-(oxetan-3-ylsulfonyl)piperazin-1-yl)pyridin-3-yl)pyrazolo[1,5-a]pyrimidine-3-carboxamide] the Ki was 10 to 1000 nM. With `COCC1CN(C(=O)C2CCN(c3c(F)cncc3NC(=O)c3c(N)nn4cc(F)cnc34)CC2)C1` [I-G-98, 2-amino-6-fluoro-N-(5-fluoro-4-(4-(3-(methoxymethyl)azetidine-1-carbonyl)piperidin-1-yl)pyridin-3-yl)pyrazolo[1,5-a]pyrimidine-3-carboxamide] the Ki was 10 to 1000 nM. In the case of `Cc1ncn(-c2ccncc2NC(=O)c2c(N)nn3cc(F)cnc23)c1C` [I-N-269, 2-amino-N-(4-(4,5-dimethyl-1H-imidazol-1-yl)pyridin-3-yl)-6-fluoropyrazolo[1,5-a]pyrimidine-3-carboxamide], the Ki is reported as 10 to 1000 nM. With `CN1CCC[C@H]1C(=O)N1CCN(c2ccncc2NC(=O)c2c(N)nn3cc(F)cnc23)CC1` [I-N-198, (S)-2-amino-6-fluoro-N-(4-(4-(1-methylpyrrolidine-2-carbonyl)piperazin-1-yl)pyridin-3-yl)pyrazolo[1,5-a]pyrimidine-3-carboxamide] the Ki was 10 to 1000 nM. `CS(=O)(=O)C1CN(C(=O)C2CCN(c3ccncc3NC(=O)c3c(N)nn4cc(F)cnc34)CC2)C1` [I-G-89, 2-amino-6-fluoro-N-(4-(4-(3-(methylsulfonyl)azetidine-1-carbonyl)piperidin-1-yl)pyridin-3-yl)pyrazolo[1,5-a]pyrimidine-3-carboxamide] showed a Ki of 10 to 1000 nM. `CN(C)C(=O)[C@H]1CC[C@@H](Oc2ccncc2NC(=O)c2c(N)nn3cc(F)cnc23)CC1` [I-O-17, 2-amino-N-(4-(((1s,4s)-4-(dimethylcarbamoyl)cyclohexyl)oxy)pyridin-3-yl)-6-fluoropyrazolo[1,5-a]pyrimidine-3-carboxamide] was tested, and the Ki was 10 to 1000 nM. `CS(=O)(=O)C1CCN(c2ccncc2NC(=O)c2c(N)nn3cc(F)cnc23)CC1` [I-N-190, 2-amino-6-fluoro-N-(4-(4-(methylsulfonyl)piperidin-1-yl)pyridin-3-yl)pyrazolo[1,5-a]pyrimidine-3-carboxamide] gave a Ki of 10 to 1000 nM. Work on `CN1CC(OC2CCN(c3ccncc3NC(=O)c3c(N)nn4cc(F)cnc34)CC2)C1` [I-N-164, 2-amino-6-fluoro-N-(4-(4-((1-methylazetidin-3-yl)oxy)piperidin-1-yl)pyridin-3-yl)pyrazolo[1,5-a]pyrimidine-3-carboxamide] yielded a Ki of 10 to 1000 nM. In the case of `Nc1nn2cc(F)cnc2c1C(=O)Nc1cncc(F)c1N1CCC(CN2CCOCC2)CC1` [I-N-149, 2-amino-6-fluoro-N-(5-fluoro-4-(4-(morpholinomethyl)piperidin-1-yl)pyridin-3-yl)pyrazolo[1,5-a]pyrimidine-3-carboxamide], the Ki is reported as 10 to 1000 nM. In the case of `N#CCc1cnc2c(C(=O)Nc3cnccc3OCCCO)c(N)nn2c1` [I-O-40, 2-amino-6-(cyanomethyl)-N-(4-(3-hydroxypropoxy)pyridin-3-yl)pyrazolo[1,5-a]pyrimidine-3-carboxamide], the Ki is reported as less than 10 nM. `Nc1nn2cc(F)cnc2c1C(=O)Nc1cnccc1N1CCN2CCC1CC2` [I-N-18, N-(4-(1,4-diazabicyclo[3.2.2]nonan-4-yl)pyridin-3-yl)-2-amino-6-fluoropyrazolo[1,5-a]pyrimidine-3-carboxamide] was tested, and the Ki was 10 to 1000 nM. `Nc1nn2cc(F)cnc2c1C(=O)Nc1cncc(F)c1N1CCC(N2CCCC2=O)CC1` [I-N-147, 2-amino-6-fluoro-N-(5-fluoro-4-(4-(2-oxopyrrolidin-1-yl)piperidin-1-yl)pyridin-3-yl)pyrazolo[1,5-a]pyrimidine-3-carboxamide] gave a Ki of 10 to 1000 nM. In the case of `Nc1nn2cc(Cl)cnc2c1C(=O)Nc1cnccc1O[C@H]1CCNC1` [I-O-76, (S)-2-amino-6-chloro-N-(4-(pyrrolidin-3-yloxy)pyridin-3-yl)pyrazolo[1,5-a]pyrimidine-3-carboxamide], the Ki is reported as 10 to 1000 nM. For `CN1CCOC2(CCN(c3ccncc3NC(=O)c3c(N)nn4cc(F)cnc34)CC2)C1` [I-N-183, 2-amino-6-fluoro-N-(4-(4-methyl-1-oxa-4,9-diazaspiro[5.5]undecan-9-yl)pyridin-3-yl)pyrazolo[1,5-a]pyrimidine-3-carboxamide], the Ki was 10 to 1000 nM. `CN1CCN(CC2CCN(c3c(F)cncc3NC(=O)c3c(N)nn4cc(F)cnc34)CC2)CC1=O` [I-N-171, 2-amino-6-fluoro-N-(5-fluoro-4-(4-((4-methyl-3-oxopiperazin-1-yl)methyl)piperidin-1-yl)pyridin-3-yl)pyrazolo[1,5-a]pyrimidine-3-carboxamide] showed a Ki of 10 to 1000 nM. In the case of `Nc1nn2cc(Cl)cnc2c1C(=O)Nc1cnccc1N1CCC(N2CCOCC2)CC1` [I-N-104, 2-amino-6-chloro-N-(4-(4-morpholinopiperidin-1-yl)pyridin-3-yl)pyrazolo[1,5-a]pyrimidine-3-carboxamide], the Ki is reported as 10 to 1000 nM. `Nc1nn2cc(F)cnc2c1C(=O)Nc1cncc(F)c1N1CCN(C2CCOCC2)CC1` [I-N-121, 2-amino-6-fluoro-N-(5-fluoro-4-(4-(tetrahydro-2H-pyran-4-yl)piperazin-1-yl)pyridin-3-yl)pyrazolo[1,5-a]pyrimidine-3-carboxamide] was tested, and the Ki was 10 to 1000 nM. For `CN(C)CCOCCOc1ccncc1NC(=O)c1c(N)nn2cc(Cl)cnc12` [I-O-47, 2-amino-6-chloro-N-(4-(2-(2-(dimethylamino)ethoxy)ethoxy)pyridin-3-yl)pyrazolo[1,5-a]pyrimidine-3-carboxamide], the Ki was 10 to 1000 nM. `CN1CCOC2(CCN(c3c(F)cncc3NC(=O)c3c(N)nn4cc(F)cnc34)CC2)C1` [I-N-272, 2-amino-6-fluoro-N-(5-fluoro-4-(4-methyl-1-oxa-4,9-diazaspiro[5.5]undecan-9-yl)pyridin-3-yl)pyrazolo[1,5-a]pyrimidine-3-carboxamide] gave a Ki of 10 to 1000 nM. Compound `Nc1nn2cc(F)cnc2c1C(=O)Nc1cncc(F)c1N1CCN(C(=O)C2COC2)CC1` [I-N-278, 2-amino-6-fluoro-N-(5-fluoro-4-(4-(oxetane-3-carbonyl)piperazin-1-yl)pyridin-3-yl)pyrazolo[1,5-a]pyrimidine-3-carboxamide] has a Ki of 10 to 1000 nM. `Nc1nn2cc(F)cnc2c1C(=O)Nc1cnccc1-c1ccccc1` [I-C-5, 2-amino-6-fluoro-N-(4-phenylpyridin-3-yl)pyrazolo[1,5-a]pyrimidine-3-carboxamide] was tested, and the Ki was 10 to 1000 nM. With `Nc1nn2cc(F)cnc2c1C(=O)Nc1cnccc1N1CCN2CCC[C@H]2C1` [I-N-21, (S)-2-amino-6-fluoro-N-(4-(hexahydropyrrolo[1,2-a]pyrazin-2(1H)-yl)pyridin-3-yl)pyrazolo[1,5-a]pyrimidine-3-carboxamide] the Ki was 10 to 1000 nM. `Cn1ccc2c(NC(=O)c3c(N)nn4cc(F)cnc34)cncc21` [I-C-74, 2-amino-6-fluoro-N-(1-methyl-1H-pyrrolo[2,3-c]pyridin-4-yl)pyrazolo[1,5-a]pyrimidine-3-carboxamide] showed a Ki of 10 to 1000 nM.
